Laboratory results from PMC6154005, “From Cell to Beak: In-Vitro and In-Vivo Characterization of Chicken Bitter Taste Thresholds” (Molecules : A Journal of Synthetic Chemistry and Natural …, 2017).
Where a name gives a salt, the structure may show the parent alone.

Tests used:
Assay in all cases: calcium imaging (Fluo4-AM, FLIPR) in transfected cells
Assay type in all cases: cell-based
Settings in all cases: agonist; HEK 293T-Galpha16gust44 cells; 2.5 mM probenecid at dye loading; lowest activating concentration, no EC50
[1] = molecular target: T1, ggTas2r7 (Gallus gallus, UniProt Q2AB81)
T1 construct: gene TAS2R7; cDNA in pcDNA5FRT, transiently expressed in HEK 293T-Galpha16gust44 cells
T1 sequence (Q2AB81 1-321): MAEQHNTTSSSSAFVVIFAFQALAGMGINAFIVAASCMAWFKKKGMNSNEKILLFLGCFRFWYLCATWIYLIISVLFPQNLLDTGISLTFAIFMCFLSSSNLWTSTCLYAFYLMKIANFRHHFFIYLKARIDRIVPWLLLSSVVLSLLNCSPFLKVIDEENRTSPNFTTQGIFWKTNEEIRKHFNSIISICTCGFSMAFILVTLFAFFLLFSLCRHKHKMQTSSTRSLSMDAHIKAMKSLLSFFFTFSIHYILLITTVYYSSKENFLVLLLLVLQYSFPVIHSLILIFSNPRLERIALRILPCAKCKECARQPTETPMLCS

[2] = molecular target: T2, ggTas2r1 (Gallus gallus, UniProt Q2AB83)
T2 construct: gene TAS2R40; cDNA in pcDNA5FRT, transiently expressed in HEK 293T-Galpha16gust44 cells
T2 sequence (Q2AB83 1-311): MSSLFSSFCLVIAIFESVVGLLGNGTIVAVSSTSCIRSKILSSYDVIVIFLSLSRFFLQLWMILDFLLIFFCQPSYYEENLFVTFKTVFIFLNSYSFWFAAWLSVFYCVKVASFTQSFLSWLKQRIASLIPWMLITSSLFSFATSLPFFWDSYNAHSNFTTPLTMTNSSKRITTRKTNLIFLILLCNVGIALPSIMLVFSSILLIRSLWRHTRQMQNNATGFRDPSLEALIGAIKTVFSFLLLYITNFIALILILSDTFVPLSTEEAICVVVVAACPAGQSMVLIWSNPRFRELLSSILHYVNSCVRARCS

[3] = molecular target: T3, ggTas2r2 (Gallus gallus, UniProt A0A1D5PXM6)
T3 construct: gene LOC101747503; cDNA in pcDNA5FRT, transiently expressed in HEK 293T-Galpha16gust44 cells
T3 sequence (A0A1D5PXM6 1-311): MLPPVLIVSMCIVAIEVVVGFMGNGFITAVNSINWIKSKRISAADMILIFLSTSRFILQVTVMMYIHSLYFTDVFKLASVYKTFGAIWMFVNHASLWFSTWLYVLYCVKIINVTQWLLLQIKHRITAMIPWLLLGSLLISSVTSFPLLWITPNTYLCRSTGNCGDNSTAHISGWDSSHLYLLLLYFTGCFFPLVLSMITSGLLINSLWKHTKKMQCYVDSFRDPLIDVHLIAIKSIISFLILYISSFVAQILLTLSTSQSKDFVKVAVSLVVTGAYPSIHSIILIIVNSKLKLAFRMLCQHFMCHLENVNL

SMILES | Threshold Concentrations (mM) / In-Vitro [1] [mM] | Threshold Concentrations (mM) / In-Vitro [2] [mM] | Threshold Concentrations (mM) / In-Vitro [3] [mM]
Oc1cc(O)c2c(c1)O[C@H](c1ccc(O)c(O)c1)[C@@H](O)C2 [(+)-catechin] | 0.3 |  | 
C=C[C@H]1CN2CC[C@H]1C[C@H]2[C@H](O)c1ccnc2ccc(OC)cc12 [quinine hydrochloride] | 0.01 | 0.01 | 0.01
